# Reference: patent US20220056019A1, “FARNESOID X RECEPTOR AGONISTS AND USES THEREOF” (Metacrine, Inc., priority 2018, published 2022)
# Molecular target: T1, hFXR (Homo sapiens, UniProt Q96RI1)
# T1 construct: expressed in transfected cells; host or cells: CV-1 cells
# T1 sequence (Q96RI1 1-486): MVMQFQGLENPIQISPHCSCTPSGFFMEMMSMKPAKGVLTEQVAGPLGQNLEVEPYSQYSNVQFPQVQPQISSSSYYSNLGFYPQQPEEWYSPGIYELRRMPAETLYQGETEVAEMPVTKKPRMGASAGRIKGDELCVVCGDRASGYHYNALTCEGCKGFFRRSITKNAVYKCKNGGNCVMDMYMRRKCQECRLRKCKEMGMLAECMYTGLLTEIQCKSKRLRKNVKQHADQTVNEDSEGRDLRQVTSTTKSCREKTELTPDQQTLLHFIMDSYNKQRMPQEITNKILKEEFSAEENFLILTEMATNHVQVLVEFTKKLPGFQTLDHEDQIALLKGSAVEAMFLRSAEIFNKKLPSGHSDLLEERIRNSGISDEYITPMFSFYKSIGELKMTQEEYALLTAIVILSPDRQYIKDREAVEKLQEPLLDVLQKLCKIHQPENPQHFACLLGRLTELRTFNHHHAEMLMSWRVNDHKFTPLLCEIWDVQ
# T1 sequence (P19793 1-462 partner): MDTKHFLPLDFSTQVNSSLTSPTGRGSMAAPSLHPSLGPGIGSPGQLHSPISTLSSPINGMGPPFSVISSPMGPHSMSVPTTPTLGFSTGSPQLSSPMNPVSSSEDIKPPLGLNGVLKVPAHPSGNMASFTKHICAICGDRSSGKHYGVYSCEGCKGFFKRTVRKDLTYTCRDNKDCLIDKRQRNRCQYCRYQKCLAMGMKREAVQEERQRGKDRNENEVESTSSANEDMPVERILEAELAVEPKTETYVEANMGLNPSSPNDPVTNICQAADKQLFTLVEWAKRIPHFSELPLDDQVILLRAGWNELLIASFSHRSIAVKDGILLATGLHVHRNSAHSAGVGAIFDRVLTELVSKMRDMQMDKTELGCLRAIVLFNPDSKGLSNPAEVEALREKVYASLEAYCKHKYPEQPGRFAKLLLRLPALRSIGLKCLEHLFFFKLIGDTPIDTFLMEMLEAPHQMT
# Assay: In Vitro FXR Assay (TK): TK-ECRE-luc reporter in transfected CV-1 cells
# Assay type: cell-based
# Conditions: 18 hrs incubation, luminescence
# How it was run: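 CV-1 cells in DMEM with 10% charcoal-stripped FBS were transiently co-transfected with hFXR, hRXR, TK-ECRE-luc reporter and pCMX-YFP plasmids over 18 h at 37 °C. Compounds serially diluted in DMSO were added for 18 h; cells were then lysed and luciferase luminescence measured.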
row,EC50 [nM],Structure (SMILES)
1,≤ 50,"COc1ccc(C23CCC(CN(c4cc(-c5cc(C6CC6)on5)ccn4)C(=O)[C@H]4CC[C@H](OC(=O)N5CC(O)C5)CC4)(CC2)CC3)cc1C [Compound 4.26, 4-((4-(5-Cyclopropylisoxazol-3-yl)pyridin-2-yl)((4-(4-methoxy-3-methylphenyl)bicyclo[2.2.2]octan-1-yl)methyl)carbamoyl) cyclohexyl 3-hydroxyazetidine-trans-1-carboxylate]"
2,≤ 50,"COc1ccc(C23CCC(CN(c4cc(-c5cc(C(C)C)on5)ccn4)C(=O)[C@H]4CC[C@H](OC(=O)N5CC(O)C5)CC4)(CC2)CC3)cc1C [Compound 4.27, 4-((4-(5-Isopropylisoxazol-3-yl)pyridin-2-yl)((4-(4-methoxy-3-methylphenyl)bicyclo[2.2.2]octan-1-yl)methyl)carbamoyl) cyclohexyl 3-hydroxyazetidine-trans-1-carboxylate]"
3,≤ 50,"COc1ccc(C23CCC(CN(c4cc(-c5cnc(C6CC6)s5)ccn4)C(=O)[C@H]4CC[C@H](OC(=O)N5CC(CO)C5)CC4)(CC2)CC3)cc1C [Compound 4.28, 4-((4-(2-Cyclopropylthiazol-5-yl)pyridin-2-yl)((4-(4-methoxy-3-methylphenyl)bicyclo[2.2.2]octan-1-yl)methyl)carbamoyl)(trans-cyclohexyl) 3-(hydroxymethyl)azetidine-1-carboxylate]"
4,≤ 50,"COc1ccc(C23CCC(CN(c4cc(-c5cnc(C(C)C)s5)ccn4)C(=O)[C@H]4CC[C@H](OC(=O)N5CC(CO)C5)CC4)(CC2)CC3)cc1C [Compound 4.29, 4-((4-(2-Isopropylthiazol-5-yl)pyridin-2-yl)((4-(4-methoxy-3-methylphenyl)bicyclo[2.2.2]octan-1-yl)methyl)carbamoyl)(trans-cyclohexyl) 3-(hydroxymethyl)azetidine-1-carboxylate]"
5,≤ 50,"CCc1nc(-c2ccnc(N(CC34CCC(c5ccc(OC)c(C)c5)(CC3)CC4)C(=O)[C@H]3CC[C@H](OC(=O)N4CC(CO)C4)CC3)c2)co1 [Compound 4.30, 4-((4-(2-Ethyloxazol-4-yl)pyridin-2-yl)((4-(4-methoxy-3-methylphenyl)bicyclo[2.2.2]octan-1-yl)methyl)carbamoyl)(trans-cyclohexyl) 3-(hydroxymethyl)azetidine-1-carboxylate]"
6,≤ 50,"COc1ccc(C23CCC(CN(c4cc(-c5coc(C6CC6)n5)ccn4)C(=O)[C@H]4CC[C@H](OC(=O)N5CC(CO)C5)CC4)(CC2)CC3)cc1C [Compound 4.31, 4-((4-(2-Cyclopropyloxazol-4-yl)pyridin-2-yl)((4-(4-methoxy-3-methylphenyl)bicyclo[2.2.2]octan-1-yl)methyl)carbamoyl)(trans-cyclohexyl) 3-(hydroxymethyl)azetidine-1-carboxylate]"
7,≤ 50,"COc1ccc(C23CCC(CN(c4cccc(-c5nnc(C6CC6)o5)c4)C(=O)[C@H]4CC[C@H](OC(=O)N5CC(O)C5)CC4)(CC2)CC3)cc1C [Compound 4.32, 4-((3-(5-Cyclopropyl-1,3,4-oxadiazol-2-yl)phenyl)((4-(4-methoxy-3-methylphenyl)bicyclo [2.2.2]octan-1-yl)methyl)carbamoyl)cyclohexyl trans-3-hydroxyazetidine-1-carboxylate]"
8,≤ 50,"COc1ccc(C23CCC(CN(c4cc(-c5cnc(C(C)C)s5)ccn4)C(=O)[C@H]4CC[C@H](OC(=O)NCCCO)CC4)(CC2)CC3)cc1C [Compound 4.33, 4-((4-(2-Isopropylthiazol-5-yl)pyridin-2-yl)((4-(4-methoxy-3-methylphenyl)bicyclo[2.2.2]octan-1-yl)methyl)carbamoyl)(trans-cyclohexyl) (3-hydroxypropyl)carbamate]"
9,≤ 50,"COc1ccc(C23CCC(CN(c4cc(-c5cnc(C(C)C)s5)ccn4)C(=O)[C@H]4CC[C@H](OC(=O)N5CC(S(C)(=O)=O)C5)CC4)(CC2)CC3)cc1C [Compound 4.34, 4-((4-(2-Isopropylthiazol-5-yl)pyridin-2-yl)((4-(4-methoxy-3-methylphenyl)bicyclo[2.2.2]octan-1-yl)methyl)carbamoyl)(trans-cyclohexyl) 3-(methylsulfonyl)azetidine-1-carboxylate]"
10,≤ 50,"COc1ccc(C23CCC(CN(c4cc(-c5cnc(C(C)C)s5)ccn4)C(=O)[C@H]4CC[C@H](OC(=O)NC5COC5)CC4)(CC2)CC3)cc1C [Compound 4.35, 4-((4-(2-Isopropylthiazol-5-yl)pyridin-2-yl)((4-(4-methoxy-3-methylphenyl)bicyclo[2.2.2]octan-1-yl)methyl)carbamoyl)(trans-cyclohexyl) oxetan-3-ylcarbamate]"
11,≤ 50,"COc1ccc(C23CCC(CN(c4cc(-c5cnc(C(C)C)s5)ccn4)C(=O)[C@H]4CC[C@H](OC(=O)NCCO)CC4)(CC2)CC3)cc1C [Compound 4.36, 4-((4-(2-Isopropylthiazol-5-yl)pyridin-2-yl)((4-(4-methoxy-3-methylphenyl)bicyclo[2.2.2]octan-1-yl)methyl)carbamoyl) cyclohexyl(2-hydroxyethyl)trans-carbamate]"
12,50 to 1000,"CCc1ncc(-c2ccnc(N(CC34CCC(c5ccc(OC)c(C)c5)(CC3)CC4)C(=O)[C@H]3CC[C@H](OC(=O)N4CC(CO)C4)CC3)c2)s1 [Compound 4.37, 4-((4-(2-Ethylthiazol-5-yl)pyridin-2-yl)((4-(4-methoxy-3-methylphenyl)bicyclo[2.2.2]octan-1-yl)methyl)carbamoyl) cyclohexyl3-(hydroxymethyl)azetidine- trans-1-carboxylate]"
13,≤ 50,"COc1ccc(C23CCC(CN(c4cc(-c5cnc(C(C)C)s5)ccn4)C(=O)[C@H]4CC[C@H](OC(=O)N5CC(OCCO)C5)CC4)(CC2)CC3)cc1C [Compound 4.38, 4-((4-(2-Isopropylthiazol-5-yl)pyridin-2-yl)((4-(4-methoxy-3-methylphenyl)bicyclo[2.2.2]octan-1-yl)methyl)carbamoyl) (trans-cyclohexyl) 3-(2-hydroxyethoxy)azetidine-1-carboxylate]"
14,≤ 50,"COc1ccc(C23CCC(CN(c4cc(-c5cnc(C(C)C)s5)ccn4)C(=O)[C@H]4CC[C@H](OC(=O)NCCC(C)(C)O)CC4)(CC2)CC3)cc1C [Compound 4.39, 4-((4-(2-Isopropylthiazol-5-yl)pyridin-2-yl)((4-(4-methoxy-3-methylphenyl)bicyclo[2.2.2]octan-1-yl)methyl)carbamoyl)(trans-cyclohexyl) (3-hydroxy-3-methylbutyl)carbamate]"
15,≤ 50,"COc1ccc(C23CCC(CN(c4cc(-c5cnn(C(C)C)c5)cc(Cl)n4)C(=O)[C@H]4CC[C@H](OC(=O)N5CC(O)C5)CC4)(CC2)CC3)cc1C [Compound 4.40, 4-((6-Chloro-4-(1-isopropyl-1H-pyrazol-4-yl)pyridin-2-yl)((4-(4-methoxy-3-methylphenyl)bicyclo[2.2.2]octan-1-yl)methyl)carbamoyl) cyclohexyl trans-3-hydroxyazetidine-1-carboxylate]"
16,≤ 50,"COCC1CN(C(=O)O[C@H]2CC[C@H](C(=O)N(CC34CCC(c5ccc(OC)c(C)c5)(CC3)CC4)c3cc(-c4cnn(C(C)C)c4)ccn3)CC2)C1 [Compound 4.41, 4-((4-(1-Isopropyl-1H-pyrazol-4-yl)pyridin-2-yl) ((4-(4-methoxy-3-methylphenyl)bicyclo [2.2.2]octan-1-yl)methyl)carbamoyl)cyclohexyl trans-3-(methoxymethyl) azetidine-1-carboxylate]"
17,≤ 50,"COc1ccc(C23CCC(CN(c4cc(-c5cnn(C(C)C)c5)ccn4)C(=O)[C@H]4CC[C@H](OC(=O)N5CC(C(C)(C)O)C5)CC4)(CC2)CC3)cc1C [Compound 4.42, 4-((4-(1-Isopropyl-1H-pyrazol-4-yl)pyridin-2-yl) ((4-(4-methoxy-3-methylphenyl)bicyclo [2.2.2]octan-1-yl)methyl)carbamoyl)cyclohexyl trans-3-(2-hydroxypropan-2-yl)azetidine-1-carboxylate]"
18,≤ 50,"COc1ccc(C23CCC(CN(c4cc(-c5cnn(C(C)C)c5)ccn4)C(=O)[C@H]4CC[C@H](OC(=O)N5CC(CCO)C5)CC4)(CC2)CC3)cc1C [Compound 4.43, 4-((4-(1-Isopropyl-1H-pyrazol-4-yl)pyridin-2-yl) ((4-(4-methoxy-3-methylphenyl)bicyclo [2.2.2]octan-1-yl)methyl)carbamoyl)cyclohexyl trans-3-(2-hydroxyethyl) azetidine-1-carboxylate]"
